According to US20240076667A1, “APPLICATION OF ANTISENSE OLIGONUCLEOTIDE TARGETING PBX1 PROMOTER REGION G-QUADRUPLEX IN PREPARATION OF MEDICINE FOR TREATING MELANOMA” (JILIN UNIVERSITY, priority 2022, published 2024):
“Also recorded” adds a separate entry of the source.

Experiments:
PBX1 rG1 = test: EGFP reporter gene system, confocal fluorescence; format: cell-based; conditions: HEK293T cells; 2 μM PDS or 5 μM TMPyP4
Procedure: Construction of an EGFP reporter vector: the reporter vector (Inovogen Tech. Co., Beijing, China) with pLV-EGFP-N as the backbone gene encodes the rG1 site of the PBX1 5′UTR sequence. By using the Strata gene rapid change site-directed mutagenesis kit, point mutation is performed on the rG1 site.
Given that G4s in the promoter and transcript are involved in the regulation of transcription and translation related processes, it is speculated that dG1 in the PBX1 promoter may regulate the transcription of PBX1, and rG1 in 5′UTR of the PBX1 transcript may regulate the transcription of PBX1. In addition, the luciferase reporter assay is first performed. The dG1 promoter sequence (designated as dG1-wt) and mutated dG1 promoter sequence (designated as dG1-mut) of PBX1 are cloned into pGL3 luciferase reporter vector. […] In addition, this embodiment further constructs an enhanced green fluorescent protein (EGFP) reporter gene system, to study the effect of rG1 on translation. The rG1 transcript sequence (designated as rG1-wt) and mutant rG1 transcript sequence (designated as rG1-mut) of PBX1 are fused to 5′UTR of EGFP, and the reporter gene vector is transfected into HEK293T cells. By confocal fluorescence experiments, the EGFP fluorescence intensity of rG1-WT is less than that of rG1-MUT, and PDS or TMPyP4 decreases the fluorescence intensity of rG1-WT in HEK293T cells (FIG. 3B). […]

PBX1 promoter region = test: BG4 chromatin immunoprecipitation (ChIP) followed by qRT-PCR in A375 cells; format: cell-based, human
Procedure: (§1) FIGS. 2A-2G are features formed by dG1 and rG1 in vitro and in cells. In (FIG. 2A), Left: CD spectra of WT and Mut dG1, and Right: CD spectra of WT and Mut rG1. CD is circular dichroism. In (FIG. 2B), Left: gel mobility assay of WT and Mut dG1, and Right: gel mobility assay of WT and Mut rG1. In (FIG. 2C), under specified conditions, fluorescence-on assay of NMM in absence of presence of dG1 or rG1, and their G/A mutant. In (FIG. 2D), the occupancy of BG4 in the PBX1 promoter region is measured in A375 cells by BG4 chromatin immunoprecipitation (ChIP), followed by qRT-PCR. In (FIG. 2E), RNA immunoprecipitation (RIP) detection is performed to show the association between BG4 and the PBX1 transcript in A375 cells, followed by qRT-PCR. In (FIG. 2F), the occupancy of BG4 in the PBX1 promoter region is measured, by the BG4 chip, in A375 cells treated with or without PDS and TMPyP4, followed by qRT-PCR. […] SEM represents the standard error of mean. *P< 0.05, **P< 0.01***P< 0.001.
In this embodiment, several methods are further employed to verify the formation of dG1 and rG1. First, circular dichroism (CD) is used to examine the molar ellipticity of dG1 and rG1 sequences (33 nt) and mutants thereof, and the mutants are designed to eliminate G4 formation. […] Both dG1 and rG1 are found to enhance the fluorescence of N N (FIG. 2C). […]

A375 cells [1] = test: Colony forming assay, A375; format: cell-based, human
Procedure: (§2) Colony forming assay: for the colony forming assay, A375 and B16-F10 cells are seeded on 6-well plates with the density of 500-1000 cells. After two weeks, staining is performed by using 1% crystal violet at room temperature, rinsing is performed with PBS and tap water, and the number of colonies is counted.

dG1 = test: Thermal stability of PBX1 dG1 with G4-specific ligands; format: binding
B16-F10 cells [2] = test: Colony forming assay, B16-F10; format: cell-based, mouse
Procedure: as §2

PBX1 dG1 = test: PBX1 dual luciferase reporter assay in HEK293T, A375 and B16-F10 cells; format: cell-based
Procedure: Dual luciferase reporter assay: for the PBX1 luciferase reporter gene assay, PBX1 luciferase reporter gene plasmid and pRL-TK plasmid are co-transfected into HEK293T, A375 and B16-F10 cells in the 96-well plate by Lipofectamine 2000 (Invitrogen, USA). 48 hours after transfection, cells are collected and analyzed using the Dual-Luciferase® Reporter Assay System (Promega, USA). The firefly activity is normalized to the activity of Renilla luciferase.
Given that G4s in the promoter and transcript are involved in the regulation of transcription and translation related processes, it is speculated that dG1 in the PBX1 promoter may regulate the transcription of PBX1, and rG1 in 5′UTR of the PBX1 transcript may regulate the transcription of PBX1. In addition, the luciferase reporter assay is first performed. The dG1 promoter sequence (designated as dG1-wt) and mutated dG1 promoter sequence (designated as dG1-mut) of PBX1 are cloned into pGL3 luciferase reporter vector. […] In addition, this embodiment further constructs an enhanced green fluorescent protein (EGFP) reporter gene system, to study the effect of rG1 on translation. The rG1 transcript sequence (designated as rG1-wt) and mutant rG1 transcript sequence (designated as rG1-mut) of PBX1 are fused to 5′UTR of EGFP, and the reporter gene vector is transfected into HEK293T cells. By confocal fluorescence experiments, the EGFP fluorescence intensity of rG1-WT is less than that of rG1-MUT, and PDS or TMPyP4 decreases the fluorescence intensity of rG1-WT in HEK293T cells (FIG. 3B). Finally, this embodiment studies the potential effect of PBX1 G4s on PBX1 expression of A375 and B16-F10 cells.

rG1 = test: Thermal stability of PBX1 rG1 with G4-specific ligands; format: binding
PBX1 transcript = test: BG4 RNA immunoprecipitation (RIP) followed by qRT-PCR in A375 cells; format: cell-based, human
Procedure: as §1
In this embodiment, several methods are further employed to verify the formation of dG1 and rG1. First, circular dichroism (CD) is used to examine the molar ellipticity of dG1 and rG1 sequences (33 nt) and mutants thereof, and the mutants are designed to eliminate G4 formation. […] N-methyl mesoporphyrin IX (NMN) is the well-known fluorescent G4-specific ligand that can be used for studies of G4 formation in vitro. Both dG1 and rG1 are found to enhance the fluorescence of N N (FIG. 2C). In addition, in this embodiment, chromatin immunoprecipitation (ChIP) and RNA immunoprecipitation (RIP) detection are performed in A375 cells using the well-known G4-specific antibody BG4. […] In summary, dG1 and rG1 can fold stable G4 structures in vitro and in cells. […] Therefore, the ability of these G4-specific ligands to interact with PBX1 G4s is investigated next.
Control:mG*mT*mC*mC*mA*mC*mA*mA*mA*mC*mA*mC*mA*mA*mC*mT*mC* mC*mT*mG*). […] This example also establishes short-term cultures of patient-derived melanoma xenograft (PDX)-derived tumor cells (PDCs) (FIG. 5D). […]

A375 cells [3] = test: Cell scratch assay (migration), A375; format: cell-based, human; conditions: PDS (2 μM), TMPyP4 (5 μM), 24 h
Procedure: Cell scratch assay: the cells are seeded in 12-well plate and grown for 24 hours to 80% confluency. The bare region is created by the tip across the diameter of the dish. After being treated with PDS (2 μM) and TMPyP4 (5 μM) for 24 h, the cells are washed with PBS and photographed under the microscope (Leica, Germany) to evaluate cell migration. Six micrographs are taken for each person.

B16-F10 cells [4] = test: Cell proliferation assay (CCK-8), B16-F10; format: cell-based, mouse; conditions: dose-dependent manner
Procedure: Cell proliferation assay: cell viability is determined by the cell counting kit-8 (CCK-8) according to the manufacturer's instructions (Abcam, UK). Cells (2000 cells per well) are incubated in the 96-well plate in triplicate and then added to each well at various time points at the final concentration of 10%, and incubation is continued at 37° C. After 60 minutes, the absorbance of the sample is measured at the wavelength of 450 nm. Data is analyzed using GraphPad Prism software.

Row | Compound | EGFP fluorescence intensity of rG1-WT (PBX1 rG1) | pull-down of the PBX1 promoter by BG4 (PBX1 promoter region) | colony formation (A375 cells [1]) | thermal stability of dG1 (dG1) | colony formation (B16-F10 cells [2]) | luciferase activity of dG1-mut transfected cells (PBX1 dG1) | luciferase activity of dG1-wt transfected cells (PBX1 dG1) | thermal stability of rG1 (rG1) | PBX1 transcript pulled down by BG4 (PBX1 transcript) | migration (A375 cells [3]) | cell viability (activity) measured by CCK8 (B16-F10 cells [4])
1 | NCCOc1cc(C(=O)Nc2cc(OCCN)c3ccccc3n2)nc(C(=O)Nc2cc(OCCN)c3ccccc3n2)c1 [PDS, Pyridostatin] | decreases | enhance | inhibits | remarkably enhance | inhibits | does not affect | remarkably inhibits | remarkably enhance | enhance | inhibit | reduce; also recorded: remarkably reduces
2 | C[n+]1ccc(-c2c3nc(c(-c4cc[n+](C)cc4)c4ccc([nH]4)c(-c4cc[n+](C)cc4)c4ccc([nH]4)c(-c4cc[n+](C)cc4)c4nc2C=C4)C=C3)cc1 [TMPyP4] | decreases | enhance | inhibits | remarkably enhance | inhibits | does not affect | remarkably inhibits | remarkably enhance | enhance | inhibit | reduce; also recorded: remarkably reduces
